Experiments:
[1] = molecular target: T1, Xanthine dehydrogenase/oxidase (Bos taurus, UniProt P80457); assay: Inhibition of bovine milk xanthine-oxidase using xanthine as substrate after 5 mins by spectrophotometric method
[2] = molecular target: T1, Xanthine dehydrogenase/oxidase; assay: Mixed-type inhibition of bovine milk xanthine oxidase assessed as enzyme-inhibitor complex using varying levels of xanthine as substrate by Line-weaver burk plot analysis
[3] = molecular target: T1, Xanthine dehydrogenase/oxidase; assay: Mixed-type inhibition of bovine milk xanthine oxidase assessed as enzyme-substrate-inhibitor complex using varying levels of xanthine as substrate by Line-weaver burk plot analysis
[4] = molecular target: T1, Xanthine dehydrogenase/oxidase; assay: Inhibition of bovine milk xanthine-oxidase up to 10 uM using xanthine as substrate after 5 mins by spectrophotometric method; settings: cattle

T1 sequence (P80457 whole entry): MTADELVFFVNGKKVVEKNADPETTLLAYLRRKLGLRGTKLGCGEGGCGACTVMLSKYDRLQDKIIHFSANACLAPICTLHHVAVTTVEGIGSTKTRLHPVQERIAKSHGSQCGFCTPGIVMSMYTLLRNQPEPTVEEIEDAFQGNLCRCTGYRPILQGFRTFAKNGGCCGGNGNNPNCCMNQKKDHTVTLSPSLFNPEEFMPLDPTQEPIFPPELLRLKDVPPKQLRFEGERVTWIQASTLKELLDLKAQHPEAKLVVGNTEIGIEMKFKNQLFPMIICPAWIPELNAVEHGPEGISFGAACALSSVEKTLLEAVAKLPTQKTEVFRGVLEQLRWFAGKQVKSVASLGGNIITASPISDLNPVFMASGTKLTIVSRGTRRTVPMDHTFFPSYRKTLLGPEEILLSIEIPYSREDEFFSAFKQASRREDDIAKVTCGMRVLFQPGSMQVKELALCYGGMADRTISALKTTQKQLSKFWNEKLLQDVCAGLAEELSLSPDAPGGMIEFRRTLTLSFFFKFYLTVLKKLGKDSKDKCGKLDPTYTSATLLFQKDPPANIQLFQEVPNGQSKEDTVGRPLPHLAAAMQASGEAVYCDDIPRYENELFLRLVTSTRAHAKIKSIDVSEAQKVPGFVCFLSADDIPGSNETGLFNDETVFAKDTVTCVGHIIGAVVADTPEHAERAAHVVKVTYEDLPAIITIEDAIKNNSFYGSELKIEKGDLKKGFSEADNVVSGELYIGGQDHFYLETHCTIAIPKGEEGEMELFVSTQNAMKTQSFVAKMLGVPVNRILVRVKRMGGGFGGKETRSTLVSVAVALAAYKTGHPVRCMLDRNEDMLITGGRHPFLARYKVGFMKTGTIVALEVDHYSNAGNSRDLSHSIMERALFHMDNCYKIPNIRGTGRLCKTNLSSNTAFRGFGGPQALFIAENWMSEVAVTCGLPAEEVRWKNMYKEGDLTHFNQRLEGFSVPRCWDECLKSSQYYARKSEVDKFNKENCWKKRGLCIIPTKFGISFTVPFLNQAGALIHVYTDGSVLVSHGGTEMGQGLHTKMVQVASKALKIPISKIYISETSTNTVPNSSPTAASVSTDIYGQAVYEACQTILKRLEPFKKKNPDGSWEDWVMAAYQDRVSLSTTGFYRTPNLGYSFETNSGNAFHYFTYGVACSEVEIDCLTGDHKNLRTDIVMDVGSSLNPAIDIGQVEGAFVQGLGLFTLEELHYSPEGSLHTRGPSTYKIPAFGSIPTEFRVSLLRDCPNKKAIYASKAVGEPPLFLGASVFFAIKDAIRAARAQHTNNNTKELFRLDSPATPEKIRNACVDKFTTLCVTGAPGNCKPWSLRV

IC50 [1] | Compound | other results
1270 nM | COc1ccc(/C=C2\Oc3cc(OCC(=O)O)ccc3C2=O)c(OC)c1 | Ki [2]: 2.9 nM; Ki [3]: 34.3 nM
4470 nM | O=C(O)COc1ccc2c(c1)O/C(=C\c1ccccc1)C2=O | –
1300 nM | COc1ccccc1/C=C1\Oc2cc(OCC(=O)O)ccc2C1=O | –
3840 nM | O=C(O)COc1ccc2c(c1)O/C(=C\c1ccccc1C(=O)O)C2=O | –
1230 nM | O=C(O)COc1ccc2c(c1)O/C(=C\c1ccccc1Cl)C2=O | –
150 nM | O=C(O)COc1ccc2c(c1)O/C(=C\c1ccc(C(=O)O)cc1)C2=O | –
1570 nM | COc1ccc(/C=C2\Oc3cc(OCC(=O)O)ccc3C2=O)cc1 | –

More lines, now with the values behind:

Compound | IC50 [1] | other results
O=C(O)c1ccc(/C=C2\Oc3cc(OCc4cccc5ccccc45)ccc3C2=O)cc1 | 69 nM | –
O=C(O)c1ccc(/C=C2\Oc3cc(O)ccc3C2=O)cc1 | 68 nM | –
COC(=O)COc1ccc2c(c1)O/C(=C\c1ccccc1)C2=O | – | inhibition (INH) [4]: Not Active
C=C(C)COc1ccc2c(c1)O/C(=C\c1ccc(C(=O)O)cc1)C2=O | 46 nM | Ki [2]: 128 nM; Ki [3]: 1200 nM; inhibition (INH) ([1]; cattle, 5 min): Dose-dependent effect
Cc1ccc(C)c(COc2ccc3c(c2)O/C(=C\c2ccc(C(=O)O)cc2)C3=O)c1 | 62 nM | –
COc1ccc2c(c1)O/C(=C\c1ccc(C(=O)O)cc1)C2=O | 80 nM | –
CC(Oc1ccc2c(c1)O/C(=C\c1ccccc1Cl)C2=O)C(=O)O (stereo unspecified) | – | inhibition (INH) [4]: Not Active
O=C(O)c1ccc(/C=C2\Oc3cc(OCc4ccccc4)ccc3C2=O)cc1 | 61 nM | –
O=C1/C(=C/c2ccc(O)c(O)c2)Oc2cc(O)ccc21 [SULFURETIN] | 3100 nM | –
